Results published in publication PMC8811960, “A Novel 2-Carbon-Linked Dimeric Artemisinin With Potent Antileukemic Activity and Favorable Pharmacology” (Frontiers in Oncology, 2022).

How the values were obtained:
MOLM14 AML xenografts = assay: luc-labeled MOLM14 AML cell line xenograft; type: in vivo, NRG mice; settings: 15 mg/kg/d PO, 5 days on, 9 days off, 5 cycles
Excerpt: Immunodeficient NOD-Rag1^nullIL2rg^null (NRG) mice were purchased from Jackson Laboratory (Bar Harbor, ME), bred and housed at the University of Maryland Baltimore. Similar to our previous publication ([20]). mice were transplanted IV with luc-labeled human AML cell lines or cryopreserved AML patient cells on day -10, and baseline total body luminescence was quantified on day 0 by Xenogen bioluminescence imaging (Xenogen IVIS Spectrum; PerkinElmer, Waltham, MA). Mice were allocated to treatment groups so that each group had similar average day 0 luminescence, then groups were administered drugs per oral (PO; gavage). Luminescence of each mouse was assessed over time and compared with that mouse’s day 0 luminescence (fold-change AML burden). Clinical behavior, appearance, weight, and survival were also monitored.
Using our previously determined 5-day MTD SAV drug schedule (i.e. 5-day treatment cycles consisting of 15 mg/kg/d ART631 combined with 150 mg/kg/d VEN and 30 mg/kg/d SOR, followed by 9 days off drug; schematic in Figure 7A ), we assessed treatment of established human luc-labeled MV4;11 ( Figures 7B–D ) and MOLM14 AML ( Figures 8A–C ) cell line xenografts with VEN plus SOR plus ART631 in NRG mice ( Figures 7B , 8A ). […]

[1] = tested on: C/EBP homologous protein (CHOP); assay: Western blot for CHOP; type: cell-based, human; settings: MOLM14, 200 nM, 18h, similar results in MV4;11 and ML2
Procedure: (§1) Cells were pre-treated with […] ROS detection reagent 5-(and 6-)-chloromethyl-2’,7’-dichlorodihydrofluorescein diacetate (CM-H2DCFDA, Life Technologies) for 30 min, followed by the iron chelator deferoxamine mesylate (DFO; 11 mM) for 60 min. Cells were then treated with ART631 (200 nM) or DMSO control for 18h, with subsequent analysis by flow cytometry. Western blotting and quantitative reverse transcription PCR (qRT-PCR) to assess for molecular markers of ROS-mediated apoptosis were performed as previously described ([20]).
(§2) Figure 4 ART631 elevated ROS and CHOP levels and reduced MCL1 expression in MOLM14 AML cells. (A) MOLM14 AML cells were pre-treated with ROS detection reagent CM-H2DCFDA ([…]) for 30 min, pre-treated with deferoxamine mesylate (DFO; 11 mM) for 60 min, and then treated with ART631 (200 nM) or DMSO control for 18h. They were then analyzed by flow cytometry. Graph represents %CM-H2DCFDA fluorescence compared to vehicle (DMSO) control treated cells. Error bars represent SD from 3 independent experiments. (B) MOLM14 AML cells were treated for 18h with vehicle, AS (10 uM), ART838 (200 nM), ART631 (200 nM), cytarabine (AraC; 150 nM), or SOR (5 uM). Protein was isolated and western blotted for MCL1, BCL2, CHOP, and β-actin. (C) MOLM14 cells were treated as in (B) for 18h, total RNA isolated, cDNA synthesized, and SYBR Green qRT-PCR performed in triplicates. […]

HEL = assay: alamarBlue growth inhibition, HEL; type: cell-based; settings: Homo sapiens, 48h, mean of 2 independent assays ± SD
Procedure: Cytotoxicity was assessed using alamarBlue assays (Life Technologies, Grand Island, NY) following manufacturer’s guidelines. Cell death was verified by Annexin V/7-aminoactinomycin D (7AAD) staining (BioLegend, San Diego, CA) per manufacturer’s guidelines.

[2] = Phase I microsomal stability, mouse liver microsomes; type: in vitro ADME
Procedure: The metabolic stability of ART631 was assessed in human and mouse plasma and liver microsomes (LM). For phase I microsomal stability assays, analogs (10 µM in <1% acetonitrile) were incubated in PBS containing liver microsomes, with or without cofactors ([22]). Microsomal controls (without cofactors) were used to determine non-enzymatic degradation. All experiments were incubated at 37°C for 1h and performed in duplicate. Reactions were stopped with acetonitrile and analyzed as described below.
ART631 was extracted from 25 µL plasma or microsomal solutions with 100 µL acetonitrile containing artemisinin (i.e. the natural product) as internal standard. […] Mobile phase A was ammonium acetate (2mM) containing 0.1% formic acid, and mobile phase B was acetonitrile containing 0.1% formic acid. The gradient started with mobile phase B and was held at 40% for 0.5 minutes with a flow rate of 0.4 mL/min, then increased to 100% over 1.5 minutes and held for 2.0 minutes, and finally returned back to 40% mobile phase B and allowed to equilibrate for 2.0 minutes. An AB Sciex 5500 triple quadrupole mass spectrometer operated in positive electrospray ionization mode was used for the detection of ART631. For stability studies, the ratio of ART631 to the internal standard, artemisinin, was assessed. Calibration curves for ART631 were computed using the ratio of the peak area to that of the internal standard by using a quadratic equation with a 1/x^2 weighting function over the range of 8-1585 nM with dilutions of up to 1:10 (v/v).

MCL1 = assay: Western blot for MCL1; type: cell-based, human; settings: MOLM14, 200 nM, 18h, similar results in MV4;11 and ML2
Procedure: as §1, §2

[3] = tested on: MOLM14, MV4;11, and HL60 human AML cells; design: method as in PMID 33560385; settings: ART631 200 nM, VEN 50 nM, SOR 5 µM; MOLM14, MV4;11, HL60; cited from earlier work
DDIT3 = assay: qRT-PCR for DDIT3 mRNA; type: cell-based, human; settings: MOLM14, 18h, ART631 200 nM, ART838 200 nM, AS 10 uM, similar results in MV4;11 and ML2
Procedure: as §1
Figure 4 ART631 elevated ROS and CHOP levels and reduced MCL1 expression in MOLM14 AML cells. (A) MOLM14 AML cells were pre-treated with ROS detection reagent CM-H2DCFDA ([…]) for 30 min, pre-treated with deferoxamine mesylate (DFO; 11 mM) for 60 min, and then treated with ART631 (200 nM) or DMSO control for 18h. They were then analyzed by flow cytometry. Graph represents %CM-H2DCFDA fluorescence compared to vehicle (DMSO) control treated cells. Error bars represent SD from 3 independent experiments. (B) MOLM14 AML cells were treated for 18h with vehicle, AS (10 uM), ART838 (200 nM), ART631 (200 nM), cytarabine (AraC; 150 nM), or SOR (5 uM). Protein was isolated and western blotted for MCL1, BCL2, CHOP, and β-actin. (C) MOLM14 cells were treated as in (B) for 18h, total RNA isolated, cDNA synthesized, and SYBR Green qRT-PCR performed in triplicates. Ct values were normalized to housekeeping gene GAPDH and fold change shown relative to vehicle (DMSO) control. Error bars represent SD from 3 independent experiments done in triplicate.

## C=CCO/N=C(/C[C@H]1O[C@@H]2O[C@@]3(C)CC[C@H]4[C@H](C)CC[C@@H]([C@H]1C)[C@@]24OO3)[C@H]1O[C@@H]2O[C@@]3(C)CC[C@H]4[C@H](C)CC[C@@H]([C@H]1C)[C@@]24OO3 [ART631]
MOLM14 AML xenografts
  antileukemic activity of monotherapy: no activity
[1]
  level of CHOP protein: increase
HEL
  IC50: 45 ± 5 nM
[2]; 10 µM, 37°C, 1h, with cofactors
  percentage remaining, Phase I Metabolism MLM NADPH(+): 35%
[2]; 10 µM, 37°C, 1h, without cofactors
  percentage remaining, Phase I Metabolism MLM NADPH(-): 60%
[2]; NADPH-dependent phase I metabolism
  degradation in mouse liver microsomes with co-factors: ~ 40%
MCL1
  MCL1 protein expression: decreased
[3]
  cell death as single agents: less than 15%
DDIT3
  DDIT3 mRNA: increased
